Common to all, as to assay: cells
Common to all, as to set-up: CellTiter-Glo 2.0 luminescence proliferation/viability assay, single agents, human tumour cell line panel
(In general: ATP-based viability assays read luminescence as a measure of living cells.)

Assay [1] has as its system SW480. Conditions: Homo sapiens, SW480, 96 h; single agent; read-out: IC50 SMACm. As for the experimental part:
(§1) The effect of BETi, SMACm alone or in combination cell viability was determined using a 96-h CellTiter-Glo2.0 proliferation assay. Cells were seeded in assay plates and placed at 37°C with 5% CO2 for twenty-four hours before treatment. Compounds were added in triplicate in gradients of increasing concentrations, in case of SMACm ranging between 4.5 nM and 10 μM and in case of BETi between 1.4 nM and 3 μM. DMSO served as control. Cell viability was measured by luminescence analysis using luminescence read on Envision plate readers (PerkinElmer). An additional set of colorectal cancer cell lines was assayed with technical duplicates and experimental triplicates. Cell viability was measured by luminescence analysis using luminescence read on Tecan Plate reader. The effects of drug combinations were analyzed using the Bliss Independence Model.[34] Synergy score was calculated by the average of 3 highest and 3 lowest BLISS Gaps between predicted and measured POC (Percentage of Control) values. To investigate the synergistic interaction between BI 894999 (hereafter, BETi) and BI 891065 (hereafter, SMACm), we evaluated the in vitro anti-tumor effect of the single agents or the combination in a large panel of 151 cancer cell lines of different tissue origin: CRC, gastric cancer, non-small cell lung cancer (NSCLC), and pancreatic carcinoma (Figures 1C–1F). As a mono-agent, SMACm was able to inhibit cell proliferation only in a limited number of tested cell lines (4%, Table S2). Most of the cell lines responded to inhibition by BETi, with sensitivity ranging from 10 to 100 nM (Figure 1C). Bliss Gap analysis, performed to analyze the effect of the BETi+SMACm combination on tumor cell growth (Figures 1D–1F), unveiled potent synergistic activity across the cell models tested (Figure 1E), independent of tumor type (Figure 1F).  Figure 1 The combinatorial effect of BI 894999 and BI 891065 across a panel of human tumor cell lines (A) Selectivity and potency profiles of BI 891065. Top left, structure of BI 891065. Top right, IC50 values for BI 891065 inhibition of cIAP1, cIAP2, and XIAP. Bottom, physicochemical properties of […]. (B) WES (Simple Western System) analysis of cIAP1, cIAP2, and XIAP levels upon treatment of HT-29 cells with indicated concentrations of BI 891065 for 6 h (C) IC50 values determined in cell proliferation assays (n = 151) individually for BETi BI 894999 and SMACm BI 891065. Each point represents a cell line tested. (D) Example of proliferation assay for synergy analysis in LoVo cell line; shown is combination plate map matrix and the cell growth inhibition (CGI) at the indicated concentrations; CGI values < 100%: tumor cell growth, CGI 100%: tumor cell stasis, and CGI > 100%: tumor cell killing. (E) Synergy scores across the tested panel of cell lines obtained using Bliss synergy analysis. (F) Violin plots showing the synergy scores for BETi and SMACm combination across indications. N is the number of cell lines tested in each indication group.

Assay [2] deals with LIM2550. Conditions: 96 h; single agent; read-out: IC50 SMACm. How it is done: as §1
The test system of assay [3] is LoVo. Conditions: Homo sapiens, LoVo, 96 h; single agent; read-out: IC50 SMACm. As for the experimental part: as §1
The subject of assay [4] is SW1116. The settings on record: Homo sapiens, SW 1116, 96 h; single agent; read-out: IC50 SMACm. As for the experimental part:
as §1

The subject of assay [5] is RERF-GC-1B. Conditions: 96 h; single agent; read-out: IC50 SMACm. How it is done:
as §1

Assay [6] concerns CCK81. Conditions: 96 h; single agent; read-out: IC50 SMACm. How it is done:
as §1

Assay [7] has as its system RERF-LC-Ad2. The settings on record: RERF-LC-Ad2, 96 h; single agent; read-out: IC50 SMACm. How it is done: as §1
The subject of assay [8] is KP-3. Conditions: 96 h; single agent; read-out: IC50 SMACm. How it is done: as §1
For assay [9], the system named is Calu-3. The settings on record: Homo sapiens, Calu-3, 96 h; single agent; read-out: IC50 SMACm. How it is done: as §1
Assay [10] concerns KM20. The settings on record: 96 h; single agent; read-out: IC50 SMACm. How it is done: as §1
Assay [11] deals with NCI-H2087. The settings on record: Homo sapiens, NCI-H2087, 96 h; single agent; read-out: IC50 SMACm. As for the experimental part:
as §1

Assay [12] has as its system KM12C. The settings on record: Homo sapiens, KM12C, 96 h; single agent; read-out: IC50 SMACm. How it is done: as §1
The subject of assay [13] is NCI-H1792. The settings on record: Homo sapiens, NCI-H1792, 96 h; single agent; read-out: IC50 SMACm. How it is done: as §1
In assay [14] the test system is NCI-H1373. Conditions: Homo sapiens, NCI-H1373, 96 h; single agent; read-out: IC50 SMACm. How it is done: as §1
Assay [15] has as its system C10. Conditions: 96 h; single agent; read-out: IC50 SMACm. How it is done:
as §1

One may read the IC50 as the concentration that inhibits the measured activity by half.

As to `CN[C@@H](C)C(=O)Nc1ccc(-c2c(-c3cccnc3OC)nc3cc(C)ccn23)c(C#Cc2ccc3c(C)nccc3c2)n1` [SMACm, BI 891065], the IC50 worked out at 5.81 µM in assay [1]; 2.08 µM in [2]; 4.76 µM in assay [3]; 4.51 µM in assay [4]; 4.29 µM in assay [5]; 7.34 µM in [6]. The IC50 in [7] came out at 2.52 µM; in [8], 4.62 µM; in [9] it was 1.46 µM; in assay [10], 5.04 µM; in assay [11], 5.05 µM; in assay [12], 5.22 µM. Besides, the IC50 is 4.79 µM in assay [13], > 10 µM in assay [14] and 6.47 µM in assay [15].

The record behind these values is PMC12490239, “Combining BET inhibition with SMAC mimetics restricts tumor growth and triggers immune surveillance in preclinical cancer models” (Cell Reports Medicine, 2025).
